# Data published in US5660613A, “Anaerobic/aerobic decontamination of DDT contaminated soil by repeated anaerobic/aerobic treatments” (Zeneca Corp., priority 1995, dated 1997).
# Assays:
# [1] = Fate of radiolabelled DDT in the soil system, aerobic / anaerobic / anaerobic then aerobic incubation (Table 1); settings: for % DDD (% remaining after tests) / % DDE (% remaining after tests) / % Other (% remaining after tests): from radiolabelled DDT; for % DDT (% remaining after tests): Triton X-100 500 ppm, 80640 min
# Excerpt: This example compares the repeated anaerobic/aerobic sequence treatment method of the present invention with single anaerobic treatment and single aerobic treatment in the degradation of DDT in a soil system.
# The soil in this example contains populations of >10^5 cfu/g viable aerobic and anaerobic microbes capable of rendering DDT-type contaminants harmless and being viable under both anaerobic and aerobic conditions. This soil contains DDT (200 ppm), DDD (22 ppm) and DDE (18 ppm).
# Six 20 g samples of soil are each mixed with 25 ml of water containing 500 ppm each of cysteine and sulphite reducing agents and 500 ppm of "Triton"-X-100. To these slurries are added 1 ppm of radiolabelled 4,4'-DDT-ring UL C^14 in hexane. Two 20 g samples are incubated anaerobically (in 50-ml polypropylene tubes at 35° C., stationary);two 20 g samples are incubated aerobically (in rotating jars with foam plugs at 35° C., 150 rpm); and two 20 g samples are incubated on a 2 week anaerobic/2 week aerobic cycle for a total of 8 weeks.
# Redox potential is monitored. After the aerobic phase redox is greater than +100 mV and after the anaerobic incubation redox potential is less than -200 mV.
# The incubation samples are extracted, and the fate of the radiolabelled DDT is determined by thin layer chromatography and autoradiography/densitometry. The experiments are repeated to obtain average results.
# [2] = Fate of radiolabelled DDT in the soil system with different surfactants, anaerobic/aerobic sequence (Table 2); settings: anaerobic/aerobic cycles, 35° C.; for % DDD (% remaining after tests) / % DDE (% remaining after tests) / % Other (% remaining after tests): from radiolabelled DDT; for % DDT (% remaining after tests): 80640 min
# Experimental: The soil to be remediated contains populations of >10^5 cfu/g of viable aerobic and anaerobic microbes capable of rendering DDT-type contaminants harmless and being viable under both anaerobic and aerobic conditions. This soil contains DDT (200 ppm), DDD (22 ppm) and DDE (18 ppm). Six twenty gram samples of soil are added to 50-ml polypropylene tubes with 25 ml of water containing 500 ppm each of cysteine and sulphite reducing agents. This creates a supersaturated anaerobic degradation zone immersed in water. To each slurry sample is added 500 ppm of different surfactants and 1 ppm of radiolabelled 4,4'-DDT ring UL C^14 in hexane.
# The tubes are capped and incubated stationary for 2 weeks at 35° C. After 2 weeks the tubes are opened and the contents are each transferred to a foam-capped jar and aerated by rotary incubation (150 rpm), for a further 2 weeks at 35° C. The anaerobic/aerobic cycle is repeated 2 times.
# The samples are then extracted and the fate of the radiolabelled DDT is determined by thin layer chromatography and autoradiography/densitometry. The experiments are replicated to obtain average results.
# [3] = Pilot scale anaerobic/aerobic cycling of DDT-contaminated soil (immersion), solvent extraction and GC ECD analysis; settings: after 16 weeks; one month immersed/drained cycles; 22° C. to 28° C.; initial DDT 728, DDD 87, DDE 50 ppm; 161280 min
# Experimental: Three-quarters of a ton of soil that contains DDT (728 ppm), DDD (87 ppm) and DDE (50 ppm) is placed in an enclosed degradation zone box 8 foot by 8 foot by 18 inches. It is alternately immersed in water and drained on one month cycles. Sodium acetate nutrient (500 ppm) is added as required to maintain the COD above 300 mg/L, and a mixture of "Triton" X-100 and "DAWN" nonionic surfactants is added as required to maintain the surface tension in the leachate below 70 dynes/cm. The material is cultivated by hand weekly to aerate the degradation zone and render it aerobic during the drained phase. During the treatment, the temperature ranges from 22° C. to 28° C. The redox potential level in the treatment zone stays below negative 200 mV while immersed in water and above positive 100 mV while drained. While drained the water content of the soil is in the range of 40-100% WHC.
# After 16 weeks 72% of the DDT, 31% of the DDD and 54% of the DDE is degraded, as measured by solvent extraction and GC ECD analysis.
# [4] = Large scale anaerobic/aerobic repeated sequence, biopile technique; settings: after 16 weeks of cycling, weekly air on/off, 22° C. to 28° C., initial DDT 728, DDD 87, DDE 50 ppm, 161280 min
# Excerpt: Eight tons of soil containing DDT (728 ppm), DDD (87 ppm) and DDE (50 ppm) is placed in an enclosed degradation zone box 8 foot by 8 foot by 8 feet. The soil is amended with 5% straw nutrient. Water is continuously dripped onto the surface of the soil to supersaturate, and the leachate is collected at the bottom and recycled at a rate of 20 to 100 L/tonne/day. Oxygenation is accomplished by passing air through a mechanical distribution system in the soil at the rate of 44 L/tonne/day, weekly alternating the air on and off. The temperatures of the soil during treatment range from 22° C. to 28° C. The redox potential level in the treatment zone stays below negative 200 mV when aeration is off and above positive 100 mV when aeration is on.
# Sodium acetate nutrient is added as required to boost the COD to above 300 mg/L, and maintain population counts above 10^5 cfu/g, of anaerobic and aerobic bacteria; and surfactants (a mixture of "Triton" X-100 and "DAWN") is added as required to maintain surface tension below 70 dynes/cm measured in the leachate, which is recycled.
# [5] = Aerobic, 35° C., 150 rpm, 8 weeks
# [6] = Anaerobic then Aerobic, 2 week/2 week cycle, total 8 weeks
# [7] = Anaerobic, 35° C., stationary, 8 weeks
structure (smiles),measurement,setting,value
"Clc1ccc(C(c2ccc(Cl)cc2)C(Cl)Cl)cc1 [DDD, 1,1,dichloro-2,2-bis(p-chlorophenyl)ethane]",% DDD (% remaining after tests),[1]; [5],17%
same,% DDD (% remaining after tests),[1]; [6],60%
same,% DDD (% remaining after tests),[1]; [7],30%
same,% DDD (% remaining after tests),"[2]; ""Dawn"" 500 ppm",75%
same,% DDD (% remaining after tests),"[2]; ""Triton"" X-100 500 ppm",40%
same,% DDD (% remaining after tests),[2]; No Surfactant,15%
same,% degraded,[3],31%
same,% degraded,[4],55%
"ClC(Cl)=C(c1ccc(Cl)cc1)c1ccc(Cl)cc1 [DDE, 2,2-bis(p-chlorophenyl)1,1-dichloroethylene]",% DDE (% remaining after tests),[1]; [5],2%
same,% DDE (% remaining after tests),[1]; [6],trace
same,% DDE (% remaining after tests),[1]; [7],0%
same,% DDE (% remaining after tests),"[2]; ""Dawn"" 500 ppm",trace
same,% DDE (% remaining after tests),"[2]; ""Triton"" X-100 500 ppm",trace
same,% DDE (% remaining after tests),[2]; No Surfactant,0%
same,% degraded,[3],54%
same,% degraded,[4],54%
"Clc1ccc(C(c2ccc(Cl)cc2)C(Cl)(Cl)Cl)cc1 [DDT, 1,1,1-trichloro-2,2-bis(p-chlorophenyl)ethane]",% DDT (% remaining after tests),[1]; [5],80%
same,% Other (% remaining after tests),[1]; [5],1%
same,% DDT (% remaining after tests),[1]; [6],10%
same,% Other (% remaining after tests),[1]; [6],30%
same,% DDT (% remaining after tests),[1]; [7],60%
same,% Other (% remaining after tests),[1]; [7],10%
same,% DDT (% remaining after tests),"[2]; ""Dawn"" 500 ppm",10%
same,% Other (% remaining after tests),"[2]; ""Dawn"" 500 ppm",15%
same,% DDT (% remaining after tests),"[2]; ""Triton"" X-100 500 ppm",0%
same,% Other (% remaining after tests),"[2]; ""Triton"" X-100 500 ppm",60%
same,% DDT (% remaining after tests),[2]; No Surfactant,85%
same,% Other (% remaining after tests),[2]; No Surfactant,0%
same,% degraded,[3],72%
same,% degraded,[4],53%
